From paper PMC9898036, “VIP152 is a selective CDK9 inhibitor with pre-clinical in vitro and in vivo efficacy in chronic lymphocytic leukemia” (Leukemia, 2022)
Where two headings read alike, the source gives them in different places.

Legend:
Assay type in all cases: binding
ARK5 = ARK5 (Homo sapiens, UniProt O60285); assay: KINOMEscan: ARK5; conditions: 1000 nM, read-out: Percent Control
CDK3 = CDK3 (Homo sapiens, UniProt Q00526); assay: KINOMEscan: CDK3; conditions: 1000 nM, read-out: Percent Control
KIT(D816H) = KIT(D816H) (Homo sapiens, UniProt P10721, D816H); assay: KINOMEscan: KIT(D816H); conditions: 1000 nM, read-out: Percent Control
ABL1 [1] = biological target: T1, ABL1 (Homo sapiens, UniProt P00519, F317I); assay: KINOMEscan: ABL1; conditions: read-out: Percent Control; for remaining binding at 0.1 µM: 100 nM; for remaining binding at 1 µM: 1000 nM
T1 sequence (P00519 229-512 F317I): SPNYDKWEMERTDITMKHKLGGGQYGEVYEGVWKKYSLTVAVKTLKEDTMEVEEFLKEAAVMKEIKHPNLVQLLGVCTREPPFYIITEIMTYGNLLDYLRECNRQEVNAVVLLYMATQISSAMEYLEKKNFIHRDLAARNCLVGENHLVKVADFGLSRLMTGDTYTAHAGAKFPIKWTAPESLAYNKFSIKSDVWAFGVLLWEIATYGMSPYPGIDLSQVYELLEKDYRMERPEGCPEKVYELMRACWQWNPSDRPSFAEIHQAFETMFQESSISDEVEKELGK
Experimental: (§1) The structure and synthesis of VIP152 were recently described by Lücking et al.. (Fig. 1A); however, the selectivity of the molecule in cellular systems has yet to be explored. […] We also performed this experiment at 1000 nM, where CDK9 was inhibited at 99%. […] We found a strong concordance between our data and those of Lücking when comparing the most inhibited kinases. Potential off-target effects of VIP152 were next tested in vitro at a concentration of 10 µM for off-target activity against a broad range of receptors, transporters, ion channels, and enzymes (n = 138) using the Eurofins Diversity Panel.
(§2) Kinomescan Kinase Profiling Assay
(§3) Kinomescan Assay was performed at DiscoverRX and described in Fabian, et al. 2005, Nat.
(§4) Biotechnol. In brief, kinases were produced and subsequently tagged with DNA for qPCR detection.
(§5) Streptavidin-coated magnetic beads were bound to biotinylated kinase ligands to serve as a solid support.
(§6) VIP152 was dissolved in DMSO and tested across a 10 serial threefold dilution set and compared to a test compound and a DMSO control. Kinases which were inhibited by VIP152 would not be bound to the solid-support resulting in decreased substrate for the qPCR reaction. Kinome map was produced via TreeSpot Analysis from DiscoverRX. […]

ABL1 [2] = biological target: ABL1 (Homo sapiens, UniProt P00519, M351T); assay: KINOMEscan: ABL1; conditions: ABL1(M351T)-phosphorylated, read-out: Percent Control
Experimental: as §1, §2, §3, §4, §5, §6

VPS34 = VPS34 (Homo sapiens, UniProt Q8NEB9); assay: KINOMEscan: VPS34; conditions: 100 nM, read-out: Percent Control
Prostanoid EP4 = Prostanoid EP4 (Homo sapiens, UniProt P35408); assay: Eurofins Diversity Panel; conditions: hum, Conc. 10 μM
CDK4-cyclinD1 = CDK4-cyclinD1 (Homo sapiens, UniProt P11802); assay: KINOMEscan: CDK4-cyclinD1; conditions: 1000 nM, read-out: Percent Control
[3] = biological target: RSK4(Kin.Dom.2-C-terminal) (Homo sapiens, UniProt Q9UK32); assay: KINOMEscan: RSK4(Kin.Dom.2-C-terminal); conditions: 100 nM, read-out: Percent Control
CAMK1B = CAMK1B (Homo sapiens, UniProt Q6P2M8); assay: KINOMEscan: CAMK1B; conditions: 1000 nM, read-out: Percent Control
MEK1 = MEK1 (Homo sapiens, UniProt Q02750); assay: KINOMEscan: MEK1; conditions: 1000 nM, read-out: Percent Control
CAMK2A = CAMK2A (Homo sapiens, UniProt Q9UQM7); assay: KINOMEscan: CAMK2A; conditions: 1000 nM, read-out: Percent Control
TXK = TXK (Homo sapiens, UniProt P42681); assay: KINOMEscan: TXK; conditions: 100 nM, read-out: Percent Control
ITK = ITK (Homo sapiens, UniProt Q08881); assay: KINOMEscan: ITK; conditions: 1000 nM, read-out: Percent Control
[4] = tested on: GABAA, Flunitrazepam, Central; assay: Eurofins Diversity Panel; conditions: rat, Conc. 10 μM
[5] = tested on: broad range of receptors, transporters, ion channels, and enzymes; assay: Eurofins Diversity Panel, whole panel (n = 138); conditions: 10 µM, except imidazoline I2, Sigma σ1, adrenergic α2A, α2B, α2C
AKT1 = AKT1 (Homo sapiens, UniProt P31749); assay: KINOMEscan: AKT1; conditions: 1000 nM, read-out: Percent Control
[6] = biological target: RPS6KA4(Kin.Dom.1-N-terminal) (Homo sapiens, UniProt O75676); assay: KINOMEscan: RPS6KA4(Kin.Dom.1-N-terminal); conditions: 100 nM, read-out: Percent Control
Adrenergic β1 = Adrenergic β1 (Homo sapiens, UniProt P08588); assay: Eurofins Diversity Panel; conditions: hum, Conc. 10 μM
Neuropeptide Y Y2 = Neuropeptide Y Y2 (Homo sapiens, UniProt P49146); assay: Eurofins Diversity Panel; conditions: hum, Conc. 10 μM
MAP4K5 = MAP4K5 (Homo sapiens, UniProt Q9Y4K4); assay: KINOMEscan: MAP4K5; conditions: 1000 nM, read-out: Percent Control
[7] = biological target: Serotonin (5-Hydroxytryptamine) 5-HT3) (Homo sapiens, UniProt P46098); assay: Eurofins Diversity Panel; conditions: hum, Conc. 10 μM
Opiate δ1 (OP1, DOP) = Opiate δ1 (OP1, DOP) (Homo sapiens, UniProt P41143); assay: Eurofins Diversity Panel; conditions: hum, Conc. 10 μM
FYN = FYN (Homo sapiens, UniProt P06241); assay: KINOMEscan: FYN; conditions: 1000 nM, read-out: Percent Control
EPHB3 = EPHB3 (Homo sapiens, UniProt P54753); assay: KINOMEscan: EPHB3; conditions: 1000 nM, read-out: Percent Control
CSNK1G2 = CSNK1G2 (Homo sapiens, UniProt P78368); assay: KINOMEscan: CSNK1G2; conditions: 1000 nM, read-out: Percent Control
WNK4 = WNK4 (Homo sapiens, UniProt Q96J92); assay: KINOMEscan: WNK4; conditions: 100 nM, read-out: Percent Control
MLK2 = MLK2 (Homo sapiens, UniProt Q02779); assay: KINOMEscan: MLK2; conditions: 1000 nM, read-out: Percent Control

FYN, sequence (P06241 whole entry): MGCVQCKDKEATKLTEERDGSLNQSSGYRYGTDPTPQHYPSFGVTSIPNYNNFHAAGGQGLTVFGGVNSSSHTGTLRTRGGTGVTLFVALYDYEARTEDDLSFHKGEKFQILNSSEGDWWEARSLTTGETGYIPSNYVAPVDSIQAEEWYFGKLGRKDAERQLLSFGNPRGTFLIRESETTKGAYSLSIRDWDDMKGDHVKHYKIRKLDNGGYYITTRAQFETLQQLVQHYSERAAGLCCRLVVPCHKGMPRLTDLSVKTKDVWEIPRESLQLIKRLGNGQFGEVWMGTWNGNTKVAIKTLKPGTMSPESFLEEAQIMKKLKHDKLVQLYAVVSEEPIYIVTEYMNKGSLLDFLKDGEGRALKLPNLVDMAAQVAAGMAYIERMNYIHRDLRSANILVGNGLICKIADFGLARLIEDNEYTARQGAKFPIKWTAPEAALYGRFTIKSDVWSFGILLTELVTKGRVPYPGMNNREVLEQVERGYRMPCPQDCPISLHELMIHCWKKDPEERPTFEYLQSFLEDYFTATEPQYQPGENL
ARK5, sequence (O60285 whole entry): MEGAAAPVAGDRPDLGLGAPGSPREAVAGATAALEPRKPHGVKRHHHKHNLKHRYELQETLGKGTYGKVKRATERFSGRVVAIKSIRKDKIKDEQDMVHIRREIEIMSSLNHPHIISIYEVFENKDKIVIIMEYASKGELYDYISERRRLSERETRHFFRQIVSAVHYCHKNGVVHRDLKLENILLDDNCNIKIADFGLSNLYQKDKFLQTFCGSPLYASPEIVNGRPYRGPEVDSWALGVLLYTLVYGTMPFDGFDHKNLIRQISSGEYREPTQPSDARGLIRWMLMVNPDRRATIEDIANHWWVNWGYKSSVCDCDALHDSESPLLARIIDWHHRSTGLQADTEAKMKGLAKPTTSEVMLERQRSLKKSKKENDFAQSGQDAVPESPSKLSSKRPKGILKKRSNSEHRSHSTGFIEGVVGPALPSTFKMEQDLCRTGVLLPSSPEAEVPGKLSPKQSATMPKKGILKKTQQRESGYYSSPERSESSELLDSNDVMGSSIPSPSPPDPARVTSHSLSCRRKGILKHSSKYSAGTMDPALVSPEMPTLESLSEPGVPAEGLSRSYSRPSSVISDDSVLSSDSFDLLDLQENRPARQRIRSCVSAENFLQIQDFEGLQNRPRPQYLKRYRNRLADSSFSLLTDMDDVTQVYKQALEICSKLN
Opiate δ1 (OP1, DOP), sequence (P41143 whole entry): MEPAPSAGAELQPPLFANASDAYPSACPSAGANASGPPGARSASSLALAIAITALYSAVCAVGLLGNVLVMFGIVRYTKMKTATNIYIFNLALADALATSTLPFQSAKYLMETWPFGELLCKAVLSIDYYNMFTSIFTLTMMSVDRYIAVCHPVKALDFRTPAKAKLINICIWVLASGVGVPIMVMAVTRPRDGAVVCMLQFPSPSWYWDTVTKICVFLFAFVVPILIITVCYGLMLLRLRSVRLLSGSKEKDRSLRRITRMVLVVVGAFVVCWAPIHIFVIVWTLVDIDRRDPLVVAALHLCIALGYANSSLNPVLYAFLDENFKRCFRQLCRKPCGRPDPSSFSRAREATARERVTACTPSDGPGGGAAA
VPS34, sequence (Q8NEB9 whole entry): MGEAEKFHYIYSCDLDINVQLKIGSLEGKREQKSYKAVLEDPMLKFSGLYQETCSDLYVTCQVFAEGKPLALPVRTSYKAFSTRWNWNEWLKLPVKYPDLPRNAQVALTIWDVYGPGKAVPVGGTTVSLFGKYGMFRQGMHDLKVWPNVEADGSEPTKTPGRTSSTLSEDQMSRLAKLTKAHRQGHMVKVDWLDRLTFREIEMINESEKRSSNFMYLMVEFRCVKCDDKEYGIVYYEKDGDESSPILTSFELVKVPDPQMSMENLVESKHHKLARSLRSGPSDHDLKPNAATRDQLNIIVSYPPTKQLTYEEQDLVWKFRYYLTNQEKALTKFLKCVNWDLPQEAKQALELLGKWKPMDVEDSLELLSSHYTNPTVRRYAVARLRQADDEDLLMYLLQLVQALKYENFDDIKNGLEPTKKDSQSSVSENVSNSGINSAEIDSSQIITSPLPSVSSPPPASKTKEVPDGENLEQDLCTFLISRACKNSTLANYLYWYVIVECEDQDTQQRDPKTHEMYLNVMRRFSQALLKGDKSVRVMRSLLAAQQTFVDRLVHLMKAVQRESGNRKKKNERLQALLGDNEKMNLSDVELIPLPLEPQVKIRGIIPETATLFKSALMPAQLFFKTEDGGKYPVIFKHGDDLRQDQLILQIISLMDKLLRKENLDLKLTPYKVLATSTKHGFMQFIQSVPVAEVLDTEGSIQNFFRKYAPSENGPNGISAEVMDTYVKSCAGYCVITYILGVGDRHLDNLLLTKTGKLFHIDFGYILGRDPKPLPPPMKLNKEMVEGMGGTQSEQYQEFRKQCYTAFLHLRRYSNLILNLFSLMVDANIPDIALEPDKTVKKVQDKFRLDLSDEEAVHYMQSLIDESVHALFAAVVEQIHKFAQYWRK
CDK4-cyclinD1, sequence (P11802 whole entry): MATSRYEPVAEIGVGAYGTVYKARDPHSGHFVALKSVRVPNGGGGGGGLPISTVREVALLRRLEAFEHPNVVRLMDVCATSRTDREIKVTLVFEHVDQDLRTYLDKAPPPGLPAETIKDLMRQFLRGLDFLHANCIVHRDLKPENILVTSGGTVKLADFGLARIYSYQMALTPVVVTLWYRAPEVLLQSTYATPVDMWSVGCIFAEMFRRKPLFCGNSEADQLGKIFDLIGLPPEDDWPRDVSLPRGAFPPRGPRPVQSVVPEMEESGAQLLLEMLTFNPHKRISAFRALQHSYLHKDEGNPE
CDK4-cyclinD1, sequence (P24385 whole entry partner): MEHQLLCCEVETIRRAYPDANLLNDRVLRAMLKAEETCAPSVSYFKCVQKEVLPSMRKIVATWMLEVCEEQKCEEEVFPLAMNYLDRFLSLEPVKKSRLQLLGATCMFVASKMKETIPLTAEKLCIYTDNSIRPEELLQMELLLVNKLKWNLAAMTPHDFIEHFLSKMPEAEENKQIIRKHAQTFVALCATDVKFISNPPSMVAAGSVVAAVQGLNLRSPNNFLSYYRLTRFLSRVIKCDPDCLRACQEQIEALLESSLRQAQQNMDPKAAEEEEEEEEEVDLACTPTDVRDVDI
KIT(D816H), sequence (P10721 26-976 D816H): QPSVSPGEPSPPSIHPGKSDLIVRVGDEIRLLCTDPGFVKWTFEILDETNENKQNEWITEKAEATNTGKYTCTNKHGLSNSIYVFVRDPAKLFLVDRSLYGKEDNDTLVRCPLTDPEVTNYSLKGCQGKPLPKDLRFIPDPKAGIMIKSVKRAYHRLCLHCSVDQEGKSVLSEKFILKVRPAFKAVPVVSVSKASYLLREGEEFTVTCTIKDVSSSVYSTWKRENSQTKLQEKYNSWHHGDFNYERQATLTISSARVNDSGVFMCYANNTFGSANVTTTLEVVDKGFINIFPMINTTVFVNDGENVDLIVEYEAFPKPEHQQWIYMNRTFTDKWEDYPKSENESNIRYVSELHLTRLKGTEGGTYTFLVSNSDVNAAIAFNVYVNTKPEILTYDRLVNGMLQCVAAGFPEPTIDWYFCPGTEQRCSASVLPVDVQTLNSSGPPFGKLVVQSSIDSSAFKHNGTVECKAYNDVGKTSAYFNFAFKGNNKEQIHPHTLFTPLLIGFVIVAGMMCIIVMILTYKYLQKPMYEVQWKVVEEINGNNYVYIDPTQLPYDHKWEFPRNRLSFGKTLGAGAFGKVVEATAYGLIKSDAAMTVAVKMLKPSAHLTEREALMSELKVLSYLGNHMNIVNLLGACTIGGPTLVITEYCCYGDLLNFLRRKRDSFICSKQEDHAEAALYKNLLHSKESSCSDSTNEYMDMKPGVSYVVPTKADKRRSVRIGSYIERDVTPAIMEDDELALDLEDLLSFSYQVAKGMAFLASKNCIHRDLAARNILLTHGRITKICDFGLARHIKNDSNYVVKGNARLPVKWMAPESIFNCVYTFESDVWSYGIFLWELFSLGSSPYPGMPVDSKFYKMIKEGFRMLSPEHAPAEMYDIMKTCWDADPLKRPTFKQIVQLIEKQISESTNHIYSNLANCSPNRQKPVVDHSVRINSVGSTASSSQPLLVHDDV
Serotonin (5-Hydroxytryptamine) 5-HT3), sequence (P46098 24-478): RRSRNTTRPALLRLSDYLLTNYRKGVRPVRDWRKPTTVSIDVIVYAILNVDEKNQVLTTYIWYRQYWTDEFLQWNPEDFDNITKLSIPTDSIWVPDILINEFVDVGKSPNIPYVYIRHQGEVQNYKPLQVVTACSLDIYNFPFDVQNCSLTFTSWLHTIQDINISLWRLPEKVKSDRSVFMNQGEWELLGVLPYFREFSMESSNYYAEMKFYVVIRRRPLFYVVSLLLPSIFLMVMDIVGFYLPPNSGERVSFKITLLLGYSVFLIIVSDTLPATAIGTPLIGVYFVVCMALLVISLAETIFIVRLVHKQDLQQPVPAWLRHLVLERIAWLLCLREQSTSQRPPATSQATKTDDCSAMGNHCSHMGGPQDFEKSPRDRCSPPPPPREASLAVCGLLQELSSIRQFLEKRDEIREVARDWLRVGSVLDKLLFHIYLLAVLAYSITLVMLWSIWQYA
CAMK2A, sequence (Q9UQM7 whole entry): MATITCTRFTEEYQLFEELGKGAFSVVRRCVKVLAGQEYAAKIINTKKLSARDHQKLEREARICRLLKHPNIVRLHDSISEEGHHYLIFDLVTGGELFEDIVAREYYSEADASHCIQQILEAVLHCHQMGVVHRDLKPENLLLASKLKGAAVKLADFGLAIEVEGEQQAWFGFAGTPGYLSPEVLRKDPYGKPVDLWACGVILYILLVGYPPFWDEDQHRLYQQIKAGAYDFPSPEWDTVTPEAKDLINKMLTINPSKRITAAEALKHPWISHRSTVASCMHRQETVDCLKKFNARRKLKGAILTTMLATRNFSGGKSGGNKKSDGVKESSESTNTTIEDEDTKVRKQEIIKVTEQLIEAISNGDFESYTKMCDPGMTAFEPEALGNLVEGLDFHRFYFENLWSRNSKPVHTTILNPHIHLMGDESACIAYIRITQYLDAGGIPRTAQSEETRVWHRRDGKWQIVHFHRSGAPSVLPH

Structure (SMILES): COc1cc(F)ccc1-c1cc(Nc2cc(CS(C)(=N)=O)ccn2)ncc1F (centres unmarked) [VIP152]
- remaining binding at 1 µM (ARK5): 100%
- remaining binding at 1 µM (CDK3): 37%
- remaining binding at 1 µM (KIT(D816H)): 59%
- remaining binding at 0.1 µM (ABL1 [1]; ABL1(F317I)-nonphosphorylated): 100%
- remaining binding at 1 µM (ABL1 [1]; ABL1(F317I)-nonphosphorylated): 84%
- remaining binding at 0.1 µM (ABL1 [1]; ABL1(F317I)-phosphorylated): 95%
- remaining binding at 1 µM (ABL1 [1]; ABL1(F317I)-phosphorylated): 33%
- remaining binding at 0.1 µM (ABL1 [2]; 100 nM): 86%
- remaining binding at 1 µM (ABL1 [2]; 1000 nM): 43%
- remaining binding at 0.1 µM (VPS34): 94%
- inhibition at 10 µM (Prostanoid EP4): 24%
- remaining binding at 1 µM (CDK4-cyclinD1): 7.8%
- remaining binding at 0.1 µM [3]: 100%
- remaining binding at 1 µM (CAMK1B): 98%
- remaining binding at 1 µM (MEK1): 85%
- remaining binding at 1 µM (CAMK2A): 84%
- remaining binding at 0.1 µM (TXK): 100%
- remaining binding at 1 µM (ITK): 100%
- % Inh. [4]: 6%
- off-target activity across the panel [5]: No significant (>50%) interference
- remaining binding at 1 µM (AKT1): 99%
- remaining binding at 0.1 µM [6]: 100%
- inhibition at 10 µM (Adrenergic β1): -7%
- inhibition at 10 µM (Neuropeptide Y Y2): 3%
- remaining binding at 1 µM (MAP4K5): 41%
- inhibition at 10 µM [7]: -3%
- inhibition at 10 µM (Opiate δ1 (OP1, DOP)): 9%
- remaining binding at 1 µM (FYN): 91%
- remaining binding at 1 µM (EPHB3): 100%
- remaining binding at 1 µM (CSNK1G2): 93%
- remaining binding at 0.1 µM (WNK4): 100%
- remaining binding at 1 µM (MLK2): 100%
